System: Mast cell
Experiment: Antiinflammatory activity in Wistar rat peritoneal mast cells assessed as inhibition of concanavalin A-induced histamine release treated 10 mins before concanavalin A challenge measured after 30 mins
Type: functional

Row | Compound | ID50
1 | COc1ccc2c(c1)OC(O)C(=O)N2 (racemic) | 6 ×10⁻⁵ M
2 | O=C(O)[C@H]1O[C@@H](Oc2cc3oc(-c4ccccc4)cc(=O)c3c(O)c2O)[C@H](O)[C@@H](O)[C@@H]1O [BAICALIN] | 3 ×10⁻⁶ M
3 | COc1ccc2[nH]c(=O)oc2c1 [COIXOL] | 1 ×10⁻³ M
4 | C[C@]12CCC(=O)C=C1CC[C@@H]1[C@@H]2[C@@H](O)C[C@@]2(C)[C@H]1CC[C@]2(O)C(=O)CO [HYDROCORTISONE] | 5 ×10⁻⁵ M
5 | COc1ccc2c(c1)c(CC(=O)O)c(C)n2C(=O)c1ccc(Cl)cc1 [INDOMETHACIN] | 8 ×10⁻⁴ M

Reference: ChEMBL document CHEMBL1150743, “Anti-inflammatory activity of benzoxazinoids from roots of Coix lachryma-jobi var. ma-yuen” (1988)
